Source: US5061711A, “Method of curing liver diseases by using pyrrolo quinoline quinone triesters and novel pyrrolo quinoline quinone triesters” (Mitsubishi Gas Chemical Company, Inc., priority 1989, dated 1991)
Like-named read-outs stand apart in the source and are kept apart here.

Experiments:
[1] = Solubility; assay type: physicochemical
[2] = system: liver diseases; settings: cited from earlier work
[3] = system: kidney; settings: Watanabe et al 1989; cited from earlier work
[4] = system: mice; assay: Kidney toxicity determined by urine test; assay type: in vivo, mouse; settings: mouse, in vivo, ip
Procedure: (2) Kidney toxicity determined by urine test
PQQ.2Na, PQQ trimethyl ester and PQQ triallyl ester were intraperitoneally administered to mice and they were bred in the same manner as in the above acute toxicity test. The doses per kg of body weight of mouse were 20, 40 and 80 mg for PQQ.2Na and 20, 40, 80, 160 and 200 mg for PQQ triesters. Urine was collected every day and glucose concentration was examined using clinical examination reagent (trademark: […] II manufactured by Miles.Sankyo Co.).

[5] = bovine, not told, 960 min
Procedure: Each compound dissolved in 10 mM HEPES buffer (containing 1%DMSO in the case of PQQ triesters) was put in an apparatus for measurement of membrane permeation constant and left to stand for 16 hours at 35 ° C. and then amount of the compound which migrated was measured by ultraviolet absorption (243 nm for PQQ 2Na and 255 nm for PQQ triester) to obtain membrane permeation constant.

[6] = system: male mice SPF-ICR; assay: Acute toxicity test; settings: mouse, in vivo, ip
Procedure: To male mice SPF-ICR five weeks old (supplied by Japan Charles River Co.) were intraperitoneally administered PQQ.2Na, PQQ trimethyl ester and PQQ triallyl ester at dosages of 40, 80, 160 and 200 mg per kg of body weight of mouse, respectively and they were bred for 14 days at 25° C. One group consisted of 8 mice. For administration, PQQ.2Na was dissolved in physiological saline and PQQ trimethyl ester and PQQ triallyl ester were suspended in 1%Tween 80-containing physiological saline, respectively.

[7] = system: mice; assay: Kidney toxicity determined by blood examination; assay type: in vivo, mouse; settings: mouse, in vivo, ip
Procedure: (3) Kidney toxicity determined by blood examination:
After lapse of one day from the administration, the mice were fasted (only water was given) and then after 18 hours, blood was collected and serum was obtained therefrom. Glucose, urea nitrogen and creatinine in the serum were examined by clinical examination reagent (trademark: FUJI DRYCHEMSLIDE manufactured by Fuji Photo Film Co., Ltd.). The results are shown by average value of eight mice in Table 3.

Structure (SMILES): O=C(OCc1ccccc1)c1cc(C(=O)OCc2ccccc2)c2c(n1)C(=O)C(=O)c1cc(C(=O)OCc3ccccc3)[nH]c1-2 [PQQ tribenzyl ester]
- Solubility ([1]; acetone): Very soluble
- Solubility ([1]; chloroform): Very soluble
- Solubility ([1]; ethanol): Very soluble
- Solubility ([1]; methanol): Very soluble
- Solubility ([1]; water): hardly soluble

Structure (SMILES): O=C(O)c1cc(C(=O)O)c2c(n1)C(=O)C(=O)c1cc(C(=O)O)[nH]c1-2 [PQQ, pyrrolo quinoline quinone]
- inhibition of liver diseases ([2]; administered intraperitoneally, Japanese Patent Kokai No. 63-192717): inhibit liver diseases
- inhibition of liver diseases ([2]; orally administered, Watanabe et al 1988): not observed
- kidney toxicity [3]: has kidney toxicity
- kidney toxicity by urine test (in words) [4]: showed kidney toxicity

Structure (SMILES): CCOC(=O)c1cc(C(=O)OCC)c2c(n1)C(=O)C(=O)c1cc(C(=O)OCC)[nH]c1-2 [PQQ triethyl ester]
- Membrane permeation constant [5]: 1.22 ± 0.37 10^-7 cm^2 · sec^-1
- membrane permeation constant relative to that of PQQ.2Na [5]: about 2 times

Structure (SMILES): O=C(O)c1cc(C(=O)O)c2c(n1)C(=O)C(=O)c1cc(C(=O)O)[nH]c1-2 [PQQ.2Na, reference compound]
- Membrane permeation constant [5]: 0.68 ± 0.36 10^-7 cm^2 · sec^-1
- mice died ([6]; 40 mg/kg): No mice died
- mice died ([6]; 80 mg/kg): five mice died
- mice died ([6]; 160 mg/kg): eight mice all died
- mice died ([6]; 200 mg/kg): eight mice all died
- glucose in urine (in words) [4]: glucose was detected
- glucose in urine ([4]; 20 mg/kg): -
- glucose in urine ([4]; 40 mg/kg): -
- glucose in urine ([4]; 80 mg/kg): -
- creatinine in serum (in words) [7]: much increase
- glucose in serum (in words) [7]: Sharp reduction
- kidney toxicity (in words) [7]: kidney toxicity was observed
- urea nitrogen in serum (in words) [7]: much increase
- Creatinine in serum ([7]; 20 mg/kg): 0.5 mg/dL
- Glucose in serum ([7]; 20 mg/kg): 70 mg/dL
- Urea nitrogen in serum ([7]; 20 mg/kg): 21 mg/dL
- Creatinine in serum ([7]; 40 mg/kg): 2.3 mg/dL
- Glucose in serum ([7]; 40 mg/kg): 60 mg/dL
- Urea nitrogen in serum ([7]; 40 mg/kg): 110 mg/dL
- Creatinine in serum ([7]; 80 mg/kg): 3.4 mg/dL
- Glucose in serum ([7]; 80 mg/kg): 57 mg/dL
- Urea nitrogen in serum ([7]; 80 mg/kg): 130 mg/dL
- Creatinine in serum ([7]; 160 mg/kg): 4.2 mg/dL
- Glucose in serum ([7]; 160 mg/kg): 35 mg/dL
- Urea nitrogen in serum ([7]; 160 mg/kg): 139 mg/dL
